Experiments:
Assay type in all cases: ADME
[1] = The drug is tested on Streptococcus anginosus strain: DSM20563 for biotransformation under anaerobic condition. The drug concentrations were measured over 6 timepoints collected between 0 and 12 hours of incubation by liquid-chromatography-coupled mass spectrometry (LC–MS); design: dose 5 uM, timepoint 0, 1.5, 3, 6, 9, 12 hours; conditions: 5 µM
[2] = The drug is tested on Prevotella copri strain: DSM18205 for biotransformation under anaerobic condition. The drug concentrations were measured over 6 timepoints collected between 0 and 12 hours of incubation by liquid-chromatography-coupled mass spectrometry (LC–MS); design: dose 5 uM, timepoint 0, 1.5, 3, 6, 9, 12 hours; conditions: segatella copri, 5 µM
[3] = The drug is tested on the gut metagenome community of T-02 with ENA study accession number: PRJEB31790 for biotransformation under microaerobic condition. The drug concentrations were measured over 7 timepoints collected between 0 and 12 hours of incubation by liquid-chromatography-coupled mass spectrometry (LC–MS); design: dose 5 uM, timepoint 0, 0.75, 1.5, 3, 6, 9, 12 hours; conditions: 5 µM
[4] = The drug is tested on Streptococcus sanguinis strain: DSM20567 for biotransformation under microaerobic condition. The drug concentrations were measured over 6 timepoints collected between 0 and 12 hours of incubation by liquid-chromatography-coupled mass spectrometry (LC–MS); design: dose 5 uM, timepoint 0, 1.5, 3, 6, 9, 12 hours; conditions: 5 µM
[5] = The drug is tested on the gut metagenome community of A-10 with ENA study accession number: PRJEB31790 for biotransformation under microaerobic condition. The drug concentrations were measured over 7 timepoints collected between 0 and 12 hours of incubation by liquid-chromatography-coupled mass spectrometry (LC–MS); design: dose 5 uM, timepoint 0, 0.75, 1.5, 3, 6, 9, 12 hours; conditions: 5 µM
[6] = The drug is tested on the gut metagenome community of T-02 with ENA study accession number: PRJEB31790 for biotransformation under anaerobic condition. The drug concentrations were measured over 7 timepoints collected between 0 and 12 hours of incubation by liquid-chromatography-coupled mass spectrometry (LC–MS); design: dose 5 uM, timepoint 0, 0.75, 1.5, 3, 6, 9, 12 hours; conditions: 5 µM
[7] = The drug is tested on Ruminococcus gnavus strain: ATCC29149 for biotransformation under anaerobic condition. The drug concentrations were measured over 6 timepoints collected between 0 and 12 hours of incubation by liquid-chromatography-coupled mass spectrometry (LC–MS); design: dose 5 uM, timepoint 0, 1.5, 3, 6, 9, 12 hours; conditions: mediterraneibacter gnavus, 5 µM
[8] = The drug is tested on Streptococcus sanguinis strain: DSM20567 for biotransformation under anaerobic condition. The drug concentrations were measured over 6 timepoints collected between 0 and 12 hours of incubation by liquid-chromatography-coupled mass spectrometry (LC–MS); design: dose 5 uM, timepoint 0, 1.5, 3, 6, 9, 12 hours; conditions: 5 µM
[9] = The drug is tested on the gut metagenome community of T-04 with ENA study accession number: PRJEB31790 for biotransformation under anaerobic condition. The drug concentrations were measured over 7 timepoints collected between 0 and 12 hours of incubation by liquid-chromatography-coupled mass spectrometry (LC–MS); design: dose 5 uM, timepoint 0, 0.75, 1.5, 3, 6, 9, 12 hours; conditions: 5 µM
[10] = The drug is tested on the gut metagenome community of A-06 with ENA study accession number: PRJEB31790 for biotransformation under anaerobic condition. The drug concentrations were measured over 7 timepoints collected between 0 and 12 hours of incubation by liquid-chromatography-coupled mass spectrometry (LC–MS); design: dose 5 uM, timepoint 0, 0.75, 1.5, 3, 6, 9, 12 hours; conditions: 5 µM
[11] = The drug is tested on Streptococcus salivarius strain: DSM20560 for biotransformation under microaerobic condition. The drug concentrations were measured over 6 timepoints collected between 0 and 12 hours of incubation by liquid-chromatography-coupled mass spectrometry (LC–MS); design: dose 5 uM, timepoint 0, 1.5, 3, 6, 9, 12 hours; conditions: 5 µM
[12] = The drug is tested on Lactobacillus reuteri strain: DSM20016 for biotransformation under microaerobic condition. The drug concentrations were measured over 6 timepoints collected between 0 and 12 hours of incubation by liquid-chromatography-coupled mass spectrometry (LC–MS); design: dose 5 uM, timepoint 0, 1.5, 3, 6, 9, 12 hours; conditions: limosilactobacillus reuteri, 5 µM
[13] = The drug is tested on the gut metagenome community of A-01 with ENA study accession number: PRJEB31790 for biotransformation under microaerobic condition. The drug concentrations were measured over 7 timepoints collected between 0 and 12 hours of incubation by liquid-chromatography-coupled mass spectrometry (LC–MS); design: dose 5 uM, timepoint 0, 0.75, 1.5, 3, 6, 9, 12 hours; conditions: 5 µM
[14] = The drug is tested on Lactobacillus gasseri strain: DSM20243 for biotransformation under microaerobic condition. The drug concentrations were measured over 6 timepoints collected between 0 and 12 hours of incubation by liquid-chromatography-coupled mass spectrometry (LC–MS); design: dose 5 uM, timepoint 0, 1.5, 3, 6, 9, 12 hours; conditions: 5 µM
[15] = The drug is tested on Capnocytophaga ochracea strain: DSM7271 for biotransformation under anaerobic condition. The drug concentrations were measured over 6 timepoints collected between 0 and 12 hours of incubation by liquid-chromatography-coupled mass spectrometry (LC–MS); design: dose 5 uM, timepoint 0, 1.5, 3, 6, 9, 12 hours; conditions: 5 µM
[16] = The drug is tested on Collinsella aerofaciens strain: DSM3979 for biotransformation under anaerobic condition. The drug concentrations were measured over 6 timepoints collected between 0 and 12 hours of incubation by liquid-chromatography-coupled mass spectrometry (LC–MS); design: dose 5 uM, timepoint 0, 1.5, 3, 6, 9, 12 hours; conditions: 5 µM
[17] = The drug is tested on Odoribacter splanchnicus strain: DSM20712 for biotransformation under anaerobic condition. The drug concentrations were measured over 6 timepoints collected between 0 and 12 hours of incubation by liquid-chromatography-coupled mass spectrometry (LC–MS); design: dose 5 uM, timepoint 0, 1.5, 3, 6, 9, 12 hours; conditions: 5 µM
[18] = The drug is tested on the gut metagenome community of P-01 with ENA study accession number: PRJEB31790 for biotransformation under anaerobic condition. The drug concentrations were measured over 7 timepoints collected between 0 and 12 hours of incubation by liquid-chromatography-coupled mass spectrometry (LC–MS); design: dose 5 uM, timepoint 0, 0.75, 1.5, 3, 6, 9, 12 hours; conditions: 5 µM
[19] = The drug is tested on Parabacteroides merdae strain: DSM19495 for biotransformation under anaerobic condition. The drug concentrations were measured over 6 timepoints collected between 0 and 12 hours of incubation by liquid-chromatography-coupled mass spectrometry (LC–MS); design: dose 5 uM, timepoint 0, 1.5, 3, 6, 9, 12 hours; conditions: 5 µM
[20] = The drug is tested on the gut metagenome community of A-04 with ENA study accession number: PRJEB31790 for biotransformation under anaerobic condition. The drug concentrations were measured over 7 timepoints collected between 0 and 12 hours of incubation by liquid-chromatography-coupled mass spectrometry (LC–MS); design: dose 5 uM, timepoint 0, 0.75, 1.5, 3, 6, 9, 12 hours; conditions: 5 µM
[21] = The drug is tested on Eubacterium rectale strain: DSM17629 for biotransformation under anaerobic condition. The drug concentrations were measured over 6 timepoints collected between 0 and 12 hours of incubation by liquid-chromatography-coupled mass spectrometry (LC–MS); design: dose 5 uM, timepoint 0, 1.5, 3, 6, 9, 12 hours; conditions: agathobacter rectalis, 5 µM
[22] = The drug is tested on Actinomyces graevenitzii strain: DSM15540 for biotransformation under microaerobic condition. The drug concentrations were measured over 6 timepoints collected between 0 and 12 hours of incubation by liquid-chromatography-coupled mass spectrometry (LC–MS); design: dose 5 uM, timepoint 0, 1.5, 3, 6, 9, 12 hours; conditions: 5 µM
[23] = The drug is tested on the gut metagenome community of P-03 with ENA study accession number: PRJEB31790 for biotransformation under anaerobic condition. The drug concentrations were measured over 7 timepoints collected between 0 and 12 hours of incubation by liquid-chromatography-coupled mass spectrometry (LC–MS); design: dose 5 uM, timepoint 0, 0.75, 1.5, 3, 6, 9, 12 hours; conditions: 5 µM
[24] = The drug is tested on the gut metagenome community of T-03 with ENA study accession number: PRJEB31790 for biotransformation under anaerobic condition. The drug concentrations were measured over 7 timepoints collected between 0 and 12 hours of incubation by liquid-chromatography-coupled mass spectrometry (LC–MS); design: dose 5 uM, timepoint 0, 0.75, 1.5, 3, 6, 9, 12 hours; conditions: 5 µM
[25] = The drug is tested on Lactobacillus paracasei strain: ATCC27092 for biotransformation under anaerobic condition. The drug concentrations were measured over 6 timepoints collected between 0 and 12 hours of incubation by liquid-chromatography-coupled mass spectrometry (LC–MS); design: dose 5 uM, timepoint 0, 1.5, 3, 6, 9, 12 hours; conditions: lacticaseibacillus paracasei, 5 µM

Structure (SMILES) | Bacterial Biotransformation [1] | Bacterial Biotransformation [2] | Bacterial Biotransformation [3] | Bacterial Biotransformation [4] | Bacterial Biotransformation [5] | Bacterial Biotransformation [6] | Bacterial Biotransformation [7] | Bacterial Biotransformation [8] | Bacterial Biotransformation [9] | Bacterial Biotransformation [10] | Bacterial Biotransformation [11] | Bacterial Biotransformation [12] | Bacterial Biotransformation [13] | Bacterial Biotransformation [14] | Bacterial Biotransformation [15] | Bacterial Biotransformation [16] | Bacterial Biotransformation [17] | Bacterial Biotransformation [18] | Bacterial Biotransformation [19] | Bacterial Biotransformation [20] | further results
C[C@]12CCC(=O)C=C1CC[C@@H]1[C@@H]2C(=O)C[C@@]2(C)[C@H]1CC[C@]2(O)C(=O)CO [CORTISONE] | Compound NOT metabolized | Compound NOT metabolized | Compound metabolized | Compound NOT metabolized | Compound metabolized | Compound metabolized | Compound metabolized | Compound NOT metabolized | Compound NOT metabolized | Compound metabolized | Compound NOT metabolized | Compound NOT metabolized | Compound metabolized | Compound NOT metabolized | Compound NOT metabolized | Compound NOT metabolized | Compound NOT metabolized | Compound metabolized | Compound NOT metabolized | Compound metabolized | Bacterial Biotransformation [21]: Compound NOT metabolized; Bacterial Biotransformation [22]: Compound NOT metabolized; Bacterial Biotransformation [23]: Compound metabolized; Bacterial Biotransformation [24]: Compound NOT metabolized; Bacterial Biotransformation [25]: Compound NOT metabolized
C[C@@H]1C[C@H]2[C@@H]3CCC4=CC(=O)C=C[C@]4(C)[C@@]3(F)[C@@H](O)C[C@]2(C)[C@@]1(O)C(=O)CO [DEXAMETHASONE] | Compound NOT metabolized | Compound NOT metabolized | Compound metabolized | Compound NOT metabolized | Compound NOT metabolized | Compound metabolized | Compound NOT metabolized | Compound NOT metabolized | Compound NOT metabolized | Compound metabolized | Compound NOT metabolized | Compound NOT metabolized | Compound NOT metabolized | Compound NOT metabolized | Compound NOT metabolized | Compound NOT metabolized | Compound NOT metabolized | Compound NOT metabolized | Compound NOT metabolized | Compound metabolized | Bacterial Biotransformation [21]: Compound NOT metabolized; Bacterial Biotransformation [22]: Compound NOT metabolized; Bacterial Biotransformation [23]: Compound NOT metabolized; Bacterial Biotransformation [24]: Compound NOT metabolized; Bacterial Biotransformation [25]: Compound NOT metabolized
COc1ccc([C@@H]2Sc3ccccc3N(CCN(C)C)C(=O)[C@@H]2OC(C)=O)cc1 [DILTIAZEM] | Compound NOT metabolized | Compound NOT metabolized | Compound metabolized | Compound NOT metabolized | Compound metabolized | Compound NOT metabolized | Compound NOT metabolized | Compound NOT metabolized | Compound NOT metabolized | Compound metabolized | Compound metabolized | Compound NOT metabolized | Compound metabolized | Compound metabolized | Compound NOT metabolized | Compound NOT metabolized | Compound NOT metabolized | Compound metabolized | Compound metabolized | Compound metabolized | Bacterial Biotransformation [21]: Compound NOT metabolized; Bacterial Biotransformation [22]: Compound NOT metabolized; Bacterial Biotransformation [23]: Compound metabolized; Bacterial Biotransformation [24]: Compound NOT metabolized; Bacterial Biotransformation [25]: Compound NOT metabolized

From ChEMBL document CHEMBL5724806, “Unraveling interindividual differences and functional consequences of gut microbial metabolism of immunosuppressants” (2024)
